Assay results from US7989420B2, “Smooth muscle relaxation” (New York Medical College, priority 2006, dated 2011).

What was measured:
bovine bronchi = assay: Force generation to acetylcholine in organ cultured bovine bronchi; assay type: cell-based; conditions: organ culture with 0.1 mM ALA for 24 hrs vs absence of ALA
Method: Studies on the Regulation of Contractile Function. Following the overnight incubation, arterial rings were mounted on wire hooks attached to Grass (FT03) force displacement transducers for measurement of changes in isometric force. Tension was adjusted to 5 g, which is the optimal passive force for maximal contraction. Changes in force were recorded on a Grass polygraph (model 7), while vessels were incubated in 10-ml baths (Metro Scientific), which were individually thermostated (37° C.) in Krebs buffer gassed with 21% O2-5% CO2 (balance N2) in the absence of compounds used to modulate BPA protoporphyrin IX levels. Arteries were incubated for 1 h during which passive tension was adjusted to maintain 5 grams. […] The effects of ODQ on relaxation to NO was determined by first contracting organ cultured control and ODQ-treated BPA with 1 μM 5-HT (after the initial exposure to increasing concentrations of 5-HT and a 30 min equilibration in Krebs).
Bovine bronchi were isolated from the same lungs used for pulmonary arteries, and studied for changes in protoporphyrin IX fluorescence and force under the same conditions as bovine pulmonary arteries described above. Superoxide was detected by the chemiluminescence produced by 5 μM lucigenin, which was detected by photon counting in a scintillation counter.

sGC = biological target: T1, sGC (Bos taurus, UniProt P16068); assay: sGC activity in BPA homogenates (cGMP by ELISA); assay type: biochemical, bovine; parameters: Guanylate cyclase activity of homogenates of BPA was measured by enzyme immunoassay; from tissue; host or cells: BPA (pulmonary artery rings, organ cultured) homogenate; conditions: organ culture with 100 μM ALA and/or 100 μM Fe
T1 sequence (P16068 1-619): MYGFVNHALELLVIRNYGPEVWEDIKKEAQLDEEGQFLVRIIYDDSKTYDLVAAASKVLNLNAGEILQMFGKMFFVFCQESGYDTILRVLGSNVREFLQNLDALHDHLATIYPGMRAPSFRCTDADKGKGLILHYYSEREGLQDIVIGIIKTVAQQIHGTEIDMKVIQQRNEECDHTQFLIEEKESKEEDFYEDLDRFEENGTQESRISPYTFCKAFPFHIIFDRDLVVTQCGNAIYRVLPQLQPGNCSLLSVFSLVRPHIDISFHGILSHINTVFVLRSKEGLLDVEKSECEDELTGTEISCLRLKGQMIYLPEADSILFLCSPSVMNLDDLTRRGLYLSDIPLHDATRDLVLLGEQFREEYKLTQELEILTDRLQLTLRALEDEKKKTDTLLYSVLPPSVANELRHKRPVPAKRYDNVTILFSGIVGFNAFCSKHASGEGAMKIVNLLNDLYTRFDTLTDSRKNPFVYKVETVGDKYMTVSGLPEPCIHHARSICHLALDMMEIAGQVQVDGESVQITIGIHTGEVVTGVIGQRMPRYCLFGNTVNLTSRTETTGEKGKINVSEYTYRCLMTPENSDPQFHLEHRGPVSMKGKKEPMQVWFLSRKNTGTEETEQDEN
T1 sequence (P19687 1-691 partner): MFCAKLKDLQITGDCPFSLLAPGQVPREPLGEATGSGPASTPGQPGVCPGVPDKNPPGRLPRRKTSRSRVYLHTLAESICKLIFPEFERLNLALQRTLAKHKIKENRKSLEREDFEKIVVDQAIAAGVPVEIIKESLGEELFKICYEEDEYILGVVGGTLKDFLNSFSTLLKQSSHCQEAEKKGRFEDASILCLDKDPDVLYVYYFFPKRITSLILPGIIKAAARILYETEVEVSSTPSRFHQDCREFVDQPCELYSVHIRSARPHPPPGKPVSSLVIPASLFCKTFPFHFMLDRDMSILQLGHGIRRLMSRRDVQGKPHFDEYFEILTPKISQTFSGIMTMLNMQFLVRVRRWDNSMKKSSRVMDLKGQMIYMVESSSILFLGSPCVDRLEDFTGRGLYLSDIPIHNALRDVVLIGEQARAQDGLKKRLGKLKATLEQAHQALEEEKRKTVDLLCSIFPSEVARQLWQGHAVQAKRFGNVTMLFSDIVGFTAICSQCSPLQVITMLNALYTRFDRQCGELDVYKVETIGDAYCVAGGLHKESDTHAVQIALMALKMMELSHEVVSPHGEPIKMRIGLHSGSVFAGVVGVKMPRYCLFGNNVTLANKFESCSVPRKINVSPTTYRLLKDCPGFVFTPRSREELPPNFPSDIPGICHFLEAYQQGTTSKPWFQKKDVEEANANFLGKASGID
Method: Guanylate cyclase activity of homogenates of BPA was measured by enzyme immunoassay of the amounts of cGMP generated. Briefly, BPA were pulverized in liquid nitrogen and homogenized in MOPS buffer 1:3 wt to buffer ratio at 5° C. Reaction mixture (0.2 ml final volume) contained 20 mM MOPS-KOH (pH 7.4), 0.1 mM GTP, 2 mM MgCl2, 0.3 mM of the phosphodiesterase inhibitor 3-Isobutyl-1-methylxanthine, a GTP-regenerating system consisting of 10 mM phosphocreatine and 150 U/ml creatine phosphokinase, and 0.1 ml of homogenate (11, 15), and test agents, as indicated. Assays of sGC activity were initiated by the addition of BPA homogenate. Incubations were conducted for 10 min at 37° C., and they were terminated by the addition of 0.1 ml of preheated 12 mM EDTA. This was followed by boiling the assay mixtures for 10 min and a subsequent addition of 5% trichloroacetic acid. The precipitate was removed by centrifugation and the supernatant was washed three times with water-saturated diethyl ether. Residual ether was removed by incubation at 70° C. for 5 minutes, prior to measurement of cGMP by ELISA (Cayman), as described in the manual supplied by manufacturer of the ELISA kit.

BPA homogenate sGC activity (sGC): increase in BPA homogenate sGC activity
SMILES: NCC(=O)CCC(=O)O [ALA, δ-aminolevulinic acid]
force generation to 10 μM acetylcholine (ACh) (bovine bronchi): inhibits (relaxes) force generation
